In patent US8212050B2, “Amidine compounds and herbicides” (Nippon Soda Co., Ltd., priority 2005, dated 2012):

Structure (SMILES) | melting point [°C]
C#CCOc1cc(N=C(C=NOC)N2CCCC2)c(F)cc1Cl [compound 190, 2-(4-chloro-2-fluoro-5-propargyloxyphenylimino)-2-(pyrrolidine-1-yl)acetaldehyde O-methyloxime] | 73 to 75
CCOC(=O)C(C)Oc1cc(N=C(C(N)=O)N2CCCC2)c(Cl)cc1Cl (centres unmarked) [compound 293, 2-[2,4-dichloro-5-(1-ethoxycarbonylethoxy)phenylimino]-2-(pyrrolidine-1-yl)acetamide] | 160 to 163
